Test results from patent US5470830A, “Motilin-like polypeptides that inhibit gastrointestinal motor activity” (Ohmeda Pharmaceutical Products Division Inc., priority 1993, dated 1995).
Structures can show the parent of a compound that is named as a salt. Where a SMILES comes first, the peptide text is derived from it. Where no end group is shown, it is not given here. [ ]: non-standard residue; d: D form. Phe(4-I) = N[C@@H](Cc1ccc(I)cc1)C(=O)O; 2Nal = N[C@@H](Cc1ccc2ccccc2c1)C(=O)O; NMeF = CN[C@@H](Cc1ccccc1)C(=O)O; 3Pal = N[C@@H](Cc1cccnc1)C(=O)O; 2Thi = N[C@@H](Cc1cccs1)C(=O)O; Cha = N[C@@H](CC1CCCCC1)C(=O)O

Key:
[1] = molecular target: segments of rabbit duodenum (Oryctolagus cuniculus, UniProt G1T803); test: Rabbit duodenal smooth muscle strip tissue bath assay (contractile response); assay type: cell-based; details: contractility; negative logarithm of dose giving 50% of maximal response to motilin; compounds tested 10^-11 to 10^-4 M
Description: The experimental protocol consisted of an equilibration period of 1 hour: a challenge with 10^-4 M acetylcholine followed by a wash-out period; a cumulative dose-response curve of a compound with, at the end, the addition of 10^-7 M motilin; and finally 10^-4 M acetylcholine. If the final response to 10^-4 M acetylcholine differed by more than 5% from the initial response, the results were discarded.

[2] = molecular target: T1, motilin receptor (rabbit antral smooth muscle membranes) (Oryctolagus cuniculus, UniProt G1T803); test: Motilin receptor binding affinity: displacement of [125I-Tyr7,Nle13]motilin(porcine); details: negative logarithm of concentration displacing 50% of [125I-Tyr7,Nle13]motilin(porcine) from rabbit antral smooth muscle membranes; read-out: pIC50 (converted)
T1 construct: from tissue; host or cells: rabbit antral smooth muscle membranes
Description: The motilin receptor binding affinity of the peptides of this invention was determined by using the general procedure of Bormans, Peelers and Vantrappen, Regul. Pept., 15, 143-153 (1986). The ability of the peptides to displace [^125 I-Tyr^7,Nle^13 ]motilin(porcine) bound to rabbit antral smooth muscle membranes, was determined by testing twice, each time in duplicate, at concentrations ranging from 10^-11 to 10^-4 M. The concentration displacing 50% of the label (IC50) was determined by fitting the data to the equation describing displacement, assuming a single class of motilin receptors to which labeled and non-labeled motilin bind with equal affinity and non-cooperatively. Fitting was performed using the iterative least-squares procedure of the SAS-software package (SAS Institute, Inc., Cary, N.C., U.S.A.). […] The concentration displacing 50% of the label is expressed using its negative logarithm (pIC50).

Sequence of segments of rabbit duodenum (G1T803 1-400): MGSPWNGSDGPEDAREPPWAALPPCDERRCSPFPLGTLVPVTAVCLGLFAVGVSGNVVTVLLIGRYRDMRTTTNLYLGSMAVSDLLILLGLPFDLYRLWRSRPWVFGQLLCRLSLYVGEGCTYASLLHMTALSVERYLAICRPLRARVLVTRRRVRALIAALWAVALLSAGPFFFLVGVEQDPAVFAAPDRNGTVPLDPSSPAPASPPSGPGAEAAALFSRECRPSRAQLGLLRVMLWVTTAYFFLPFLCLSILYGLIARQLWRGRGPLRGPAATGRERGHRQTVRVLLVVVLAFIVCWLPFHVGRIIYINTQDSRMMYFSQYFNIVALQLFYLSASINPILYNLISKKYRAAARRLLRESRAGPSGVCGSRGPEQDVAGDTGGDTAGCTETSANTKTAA
T1 sequence (G1T803 1-400): as above

Row | Compound | pEC50 [1] | IC50 [2] [µM]
1 | CC[C@H](C)[C@H](NC(=O)[C@H](Cc1ccccc1)NC(=O)[C@@H](NC(=O)[C@@H](N)Cc1ccccc1)C(C)C)C(=O)N[C@@H](Cc1ccccc1)C(=O)N[C@H](C(=O)N[C@@H](Cc1ccc(O)cc1)C(=O)NCC(=O)N[C@@H](CCC(=O)O)C(=O)N[C@@H](CC(C)C)C(=O)N[C@@H](CCC(N)=O)C(=O)N[C@@H](CCCNC(=N)N)C(=O)N[C@@H](CC(C)C)C(=O)N[C@H](CCC(N)=O)C(N)=O)[C@@H](C)O [H-Phe-Val-Phe-Ile-Phe-Thr-Tyr-Gly-Glu-Leu-Gln-Arg-Leu-D-Gln-NH2] (H-FVFIFTYGELQRL[dQ]-NH2) | < 4.5 | 0.000977
2 | CC[C@H](C)[C@H](NC(=O)[C@H](Cc1ccc2ccccc2c1)NC(=O)[C@@H](NC(=O)[C@@H](N)Cc1ccccc1)C(C)C)C(=O)N[C@@H](Cc1ccccc1)C(=O)N[C@H](C(=O)N[C@@H](Cc1ccc(O)cc1)C(=O)NCC(=O)N[C@@H](CCC(=O)O)C(=O)N[C@@H](CC(C)C)C(=O)N[C@@H](CCC(N)=O)C(=O)N[C@@H](CCCNC(=N)N)C(=O)N[C@@H](CC(C)C)C(=O)N[C@@H](CCC(N)=O)C(=O)O)[C@@H](C)O [[2-Nal^3, Leu^13]pMOT(1-14), H-Phe-Val-2-Nal-Ile-Phe-Thr-Tyr-Gly-Glu-Leu-Gln-Arg-Leu-Gln-OH] (H-FV[2Nal]IFTYGELQRLQ-OH) | < 4.5 | 0.0275
3 | CC[C@H](C)[C@H](NC(=O)[C@H](Cc1ccccc1)NC(=O)[C@@H](NC(=O)[C@@H](N)CC1CCCCC1)C(C)C)C(=O)N[C@@H](Cc1ccccc1)C(=O)N[C@H](C(=O)N[C@@H](Cc1ccc(O)cc1)C(=O)NCC(=O)N[C@@H](CCC(=O)O)C(=O)N[C@@H](CC(C)C)C(=O)N[C@@H](CCC(N)=O)C(=O)N[C@@H](CCCNC(=N)N)C(=O)N[C@@H](CC(C)C)C(=O)N[C@@H](CCC(N)=O)C(=O)O)[C@@H](C)O [[Cha^1, Phe^3, Leu^13]pMOT(1-14), H-Cha-Val-Phe-Ile-Phe-Thr-Tyr-Gly-Glu-Leu-Gln-Arg-Leu-Gln-OH] (H-[Cha]VFIFTYGELQRLQ-OH) | < 4.5 | 0.0295
4 | CC[C@H](C)[C@H](NC(=O)[C@H](CC1CCCCC1)NC(=O)[C@@H](NC(=O)[C@@H](N)Cc1ccccc1)C(C)C)C(=O)N[C@@H](Cc1ccccc1)C(=O)N[C@H](C(=O)N[C@@H](Cc1ccc(O)cc1)C(=O)NCC(=O)N[C@@H](CCC(=O)O)C(=O)N[C@@H](CC(C)C)C(=O)N[C@@H](CCC(N)=O)C(=O)N[C@@H](CCCNC(=N)N)C(=O)N[C@@H](CC(C)C)C(=O)N[C@@H](CCC(N)=O)C(=O)O)[C@@H](C)O [[Cha^3, Leu^13]pMOT(1-14), H-Phe-Val-Cha-Ile-Phe-Thr-Tyr-Gly-Glu-Leu-Gln-Arg-Leu-Gln-OH] (H-FV[Cha]IFTYGELQRLQ-OH) | < 4.5 | 0.0209
5 | CC[C@H](C)[C@H](NC(=O)[C@H](Cc1ccccc1)NC(=O)[C@@H](NC(=O)[C@H](N)Cc1ccccc1)C(C)C)C(=O)N[C@@H](Cc1ccccc1)C(=O)N[C@H](C(=O)N[C@@H](Cc1ccc(O)cc1)C(=O)NCC(=O)N[C@@H](CCC(=O)O)C(=O)N[C@@H](CC(C)C)C(=O)N[C@@H](CCC(N)=O)C(=O)N[C@@H](CCCNC(=N)N)C(=O)N[C@@H](CC(C)C)C(=O)N[C@@H](CCC(N)=O)C(=O)O)[C@@H](C)O [[D-Phe^1, Phe^3, Leu^13]pMOT(1-14), H-D-Phe-Val-Phe-Ile-Phe-Thr-Tyr-Gly-Glu-Leu-Gln-Arg-Leu-Gln-OH] (H-[dF]VFIFTYGELQRLQ-OH) | < 4.5 | 0.229
6 | CC[C@H](C)[C@H](NC(=O)[C@@H](Cc1ccccc1)NC(=O)[C@@H](NC(=O)[C@@H](N)Cc1ccccc1)C(C)C)C(=O)N[C@@H](Cc1ccccc1)C(=O)N[C@H](C(=O)N[C@@H](Cc1ccc(O)cc1)C(=O)NCC(=O)N[C@@H](CCC(=O)O)C(=O)N[C@@H](CC(C)C)C(=O)N[C@@H](CCC(N)=O)C(=O)N[C@@H](CCCNC(=N)N)C(=O)N[C@@H](CC(C)C)C(=O)N[C@@H](CCC(N)=O)C(=O)O)[C@@H](C)O [[D-Phe^3, Leu^13]pMOT(1-14), H-Phe-Val-D-Phe-Ile-Phe-Thr-Tyr-Gly-Glu-Leu-Gln-Arg-Leu-Gln-OH] (H-FV[dF]IFTYGELQRLQ-OH) | < 4.5 | 0.00813
7 | CC[C@H](C)[C@H](NC(=O)[C@H](Cc1ccccc1)NC(=O)[C@@H](NC(=O)[C@H](Cc1ccccc1)NC)C(C)C)C(=O)N[C@@H](Cc1ccccc1)C(=O)N[C@H](C(=O)N[C@@H](Cc1ccc(O)cc1)C(=O)NCC(=O)N[C@@H](CCC(=O)O)C(=O)N[C@@H](CC(C)C)C(=O)N[C@@H](CCC(N)=O)C(=O)N[C@@H](CCCNC(=N)N)C(=O)N[C@@H](CC(C)C)C(=O)N[C@@H](CCC(N)=O)C(=O)O)[C@@H](C)O [[N--MePhe^1, Phe^3, Leu^3]pMOT(1-14), [1-N-Methylphenylalanine, 3-phenylalanine, 13-leucine] motilin-(1-14)-peptide (Porcine), Bis-trifluoroacetate Salt] (H-[NMeF]VFIFTYGELQRLQ-OH) | < 4.5 | 0.0107
8 | CC[C@H](C)[C@H](NC(=O)[C@H](Cc1cccnc1)NC(=O)[C@@H](NC(=O)[C@@H](N)Cc1ccccc1)C(C)C)C(=O)N[C@@H](Cc1ccccc1)C(=O)N[C@H](C(=O)N[C@@H](Cc1ccc(O)cc1)C(=O)NCC(=O)N[C@@H](CCC(=O)O)C(=O)N[C@@H](CC(C)C)C(=O)N[C@@H](CCC(N)=O)C(=O)N[C@@H](CCCNC(=N)N)C(=O)N[C@@H](CC(C)C)C(=O)N[C@@H](CCC(N)=O)C(=O)O)[C@@H](C)O [[Pal^3, Leu^13]pMOT(1-14), H-Phe-Val-Pal-Ile-Phe-Thr-Tyr-Gly-Glu-Leu-Gln-Arg-Leu-Gln-OH] (H-FV[3Pal]IFTYGELQRLQ-OH) | < 4.5 | 0.158
9 | CC[C@H](C)[C@H](NC(=O)[C@H](Cc1ccccc1)NC(=O)[C@@H](NC(=O)[C@@H](N)Cc1ccccc1)C(C)C)C(=O)N[C@@H](CC1CCCCC1)C(=O)N[C@H](C(=O)N[C@@H](Cc1ccc(O)cc1)C(=O)NCC(=O)N[C@@H](CCC(=O)O)C(=O)N[C@@H](CC(C)C)C(=O)N[C@@H](CCC(N)=O)C(=O)N[C@@H](CCCNC(=N)N)C(=O)N[C@@H](CC(C)C)C(=O)N[C@@H](CCC(N)=O)C(=O)O)[C@@H](C)O [[Phe^3, Cha^5, Leu^13]pMOT(1-14), H-Phe-Val-Phe-Ile-Cha-Thr-Tyr-Gly-Glu-Leu-Gln-Arg-Leu-Gln-OH] (H-FVFI[Cha]TYGELQRLQ-OH) | < 4.5 | 0.0251
10 | CC[C@H](C)[C@H](NC(=O)[C@H](Cc1ccccc1)NC(=O)[C@@H](NC(=O)[C@@H](N)Cc1ccccc1)C(C)C)C(=O)N[C@@H](Cc1ccccc1)C(=O)N[C@H](C(=O)N[C@@H](Cc1ccc(O)cc1)C(=O)N[C@H](C)C(=O)N[C@@H](CCC(=O)O)C(=O)N[C@@H](CC(C)C)C(=O)N[C@@H](CCC(N)=O)C(=O)N[C@@H](CCCNC(=N)N)C(=O)N[C@@H](CC(C)C)C(=O)N[C@@H](CCC(N)=O)C(=O)O)[C@@H](C)O [[Phe^3, D-Ala^8, Leu^13]pMOT(1-14), H-Phe-Val-Phe-Ile-Phe-Thr-Tyr-D-Ala-Glu-Leu-Gln-Arg-Leu-Gln-OH] (H-FVFIFTY[dA]ELQRLQ-OH) | < 4.5 | 0.049
11 | CC[C@H](C)[C@H](NC(=O)[C@H](Cc1ccccc1)NC(=O)[C@@H](NC(=O)[C@@H](N)Cc1ccccc1)C(C)C)C(=O)N[C@@H](Cc1ccccc1)C(=O)N[C@H](C(=O)N[C@@H](Cc1ccc(O)cc1)C(=O)NCC(=O)N[C@@H](CCC(=O)O)C(=O)N[C@@H](CC(C)C)C(=O)N[C@@H](CCC(N)=O)C(=O)N[C@H](CCCNC(=N)N)C(=O)N[C@@H](CC(C)C)C(=O)N[C@@H](CCC(N)=O)C(=O)O)[C@@H](C)O [[Phe^3, D-Arg^12, Leu^13]pMOT(1-14)] (H-FVFIFTYGELQ[dR]LQ-OH) | < 4.5 | 0.0813
12 | CC[C@H](C)[C@H](NC(=O)[C@H](Cc1cccs1)NC(=O)[C@@H](NC(=O)[C@@H](N)Cc1ccccc1)C(C)C)C(=O)N[C@@H](Cc1ccccc1)C(=O)N[C@H](C(=O)N[C@@H](Cc1ccc(O)cc1)C(=O)NCC(=O)N[C@@H](CCC(=O)O)C(=O)N[C@@H](CC(C)C)C(=O)N[C@@H](CCC(N)=O)C(=O)N[C@@H](CCCNC(=N)N)C(=O)N[C@@H](CC(C)C)C(=O)N[C@@H](CCC(N)=O)C(=O)O)[C@@H](C)O [[Thi^3, Leu^13]pMOT(1-14), H-Phe-Val-Thi-Ile-Phe-Thr-Tyr-Gly-Glu-Leu-Gln-Arg-Leu-Gln-OH] (H-FV[2Thi]IFTYGELQRLQ-OH) | < 4.5 | 0.0257
13 | CC[C@H](C)[C@H](NC(=O)[C@H](Cc1ccc(I)cc1)NC(=O)[C@@H](NC(=O)[C@@H](N)Cc1ccccc1)C(C)C)C(=O)N[C@@H](Cc1ccccc1)C(=O)N[C@H](C(=O)N[C@@H](Cc1ccc(O)cc1)C(=O)NCC(=O)N[C@@H](CCC(=O)O)C(=O)N[C@@H](CC(C)C)C(=O)N[C@@H](CCC(N)=O)C(=O)N[C@@H](CCCNC(=N)N)C(=O)N[C@@H](CC(C)C)C(=O)N[C@@H](CCC(N)=O)C(=O)O)[C@@H](C)O [[p-I-Phe^3, Leu^13]pMOT(1-14), H-Phe-Val-p-L-Phe-Ile-Phe-Thr-Tyr-Gly-Glu-Leu-Gln-Arg-Leu-Gln-OH] (H-FV[Phe(4-I)]IFTYGELQRLQ-OH) | < 4.5 | 0.0437
14 | FVFIFTYGELQR-NH2 [[Phe^3 pMOT(1-12) amide, [3-Phenylalanine]motilin-(1-12)-peptide Amide (Porcine), Bis-trifluoroacetate Salt] | < 4.5 | 0.0275
